Source: patent publication US20140079740A1 (priority 2012, published 2014)
Read-outs that look alike come from different tables or passages of the source.

Tests used:
[1] = cited from earlier work; for T1/2: biological half-life of metabolite
anesthesia and analgesia = details: cited from earlier work
neuropathic pain = details: cited from earlier work
[2] = Dose linearity test for oral transmucosal S-ketamine formulations

For `NC1(c2ccccc2Cl)CCC=CC1=O` (stereo not drawn) [Dehydronorketamine], the T1/2 [1] is given as 6.91 (1.71) h.

In the case of `N[C@]1(c2ccccc2Cl)CCCCC1=O` [S-norketamine], the “analgesic and anaesthetic effect relative to S-ketamine” value (anesthesia and analgesia; in vivo) is listed as “five times weaker”.

In the case of `CN[C@]1(c2ccccc2Cl)CCCCC1=O` [S-Ketamine], the “therapeutic index relative to R-Ketamine” value (anesthesia and analgesia; in vivo) is listed as 2.5 times, the “time to maximal pain reduction” value (neuropathic pain; after nasal application) is listed as 60 min and the “plasma concentrations of (S)-norketamine” value (neuropathic pain; between 30 and 180 min after intranasal administration) is listed as > 10 ng/mL. For the same molecule, the “time to (S)-ketamine plasma-peak” value (neuropathic pain; intranasal) was ≤ 15 min, the “time to decline of plasma level below 10 ng/ml” value (neuropathic pain; intranasal) was ≤ 60 min and the “duration of reduction of ongoing neuropathic pain” value (neuropathic pain; low-dose intranasal administration) was 2 to 3 h. The “range of dose linearity” value [2] was 10 to 300 mg.

In the case of `CNC1(c2ccccc2Cl)CCCCC1=O` (racemic) [Ketamine, dl-2-(o-chloro-phenyl)-2(methylamino)cyclohexanone], the duration of anesthesia (anesthesia and analgesia; IM administration) is given as 12 to 25 min, the time to anesthesia (anesthesia and analgesia; IM route) is given as 3 to 4 min and the time to anesthesia (anesthesia and analgesia; administered intravenously) is given as ≤ 0.5 min. For the same molecule, the “time to sensation of dissociation” value (anesthesia and analgesia; administered intravenously) was 15 s, the “ketamine concentration at effective analgesia” value (anesthesia and analgesia; following oral dose) was 40 ng/mL and the Time to onset (anesthesia and analgesia; iv bolus, dosage 2 mg/kg) was 30 to 60 s. For the same molecule, the duration of effect (anesthesia and analgesia; iv bolus, dosage 2 mg/kg) was 10 to 15 min, the “plasma levels at which analgesic effects were observed” value (anesthesia and analgesia; sum of S- and R-isomer, intramuscular and intravenous administration) was 100 to 200 ng/mL and the T½ beta ([1]; biological half-life) was 4.98 (1.56) h. The Clearance ([1]; in vivo) was 12 to 17 mL/min/kg, the Metabolites excreted fecally ([1]; in vivo) was 5% and the Metabolites excreted renally ([1]; in vivo) was 90%. The “Urinary excretion of unchanged drug” value ([1]; in vivo) was 3-4%, the “administered dose excreted unchanged in urine” value ([1]; in vivo) was 4% and the alpha phase half-life ([1]; in vivo) was 0.167 to 0.25 h. The “apparent volume of distribution” value ([1]; in vivo) was 3.3 L/kg, the beta phase half-life ([1]; in vivo) was 2 to 3 h and the clearance rate ([1]; in vivo) was 1.3 L/min. For the same molecule, the distribution half-life ([1]; in vivo) was 7 to 11 min, the “duration of alpha phase of distribution” value ([1]; in vivo) was “about 45 minutes” and the elimination half-life ([1]; in vivo) was 2 to 3 h. The elimination halftime ([1]; in vivo) was “about 2.5 hours”, the Bioavailability ([1]; intramuscular dose) was 93% and the “time of peak plasma concentrations” value ([1]; intramuscular injection) was 5 to 10 min. The Bioavailability ([1]; intranasal dose) was 25-50%, the “time of peak plasma concentrations” value ([1]; intravenous administration) was ≤ 1 min and the “time of peak plasma concentrations” value ([1]; oral administration) was 30 min. The Bioavailability ([1]; oral dose) was 20±7%, the Bioavailability ([1]; orally administered, extensive first-pass metabolism) was “approximately 16%” and the “time of peak absorption” value ([1]; rectal, in children) was 45 min. The “oral bioavailability (AUC) relative to intravenous injection” value ([1]; single oral dose of 0.5 mg/kg) was “about 20%”.

For `NC1(c2ccccc2Cl)CCCCC1=O` (stereo not drawn) [Norketamine], the “peak plasma concentrations of norketamine” value ([1]; after oral administration of ketamine) is listed as 200 ng/mL and the T1/2 [1] is listed as 5.32 (1.70) h.
